Literature values as cited in patent US10561625B2, “Methods of treatment using sustained release sotalol formulations” (The Roshni Singh 2015 Trust, priority 2004, dated 2020).
Where a name gives a salt, the structure may show the parent alone.

Legend:
[1] = not given; remark: listed apart in the source

| plasma half-life (in vivo) [h] | solubility in water [1] | elimination (exclusively renal) half-life (administered twice daily) [h] | peak plasma concentration (time) (after a dose of the current formulation) [h] | mean elimination half-life (current formulation) | bioavailability (in vivo) [%] | absorbed after oral ingestion (oral, no first-pass hepatic metabolism) [%] | SMILES |
| --- | --- | --- | --- | --- | --- | --- | --- |
| 2.5 to 9.5 | freely soluble in water | – | – | – | – | – | COCCc1ccc(OCC(O)CNC(C)C)cc1 (centres unmarked) [Metoprolol] |
| – | freely soluble in water | 8 to 12 | 2 to 3 | about 12 hours | 100 | 100 | CC(C)NCC(O)c1ccc(NS(C)(=O)=O)cc1 (racemic) [Sotalol, 4′-(2-isopropylaminoethyl-1-hydroxy) methanesulphonanilide hydrochloride] |
